According to ChEMBL document CHEMBL2028040, “Malaria Box”:

Columns and labels:
[1] = system: Trypanosoma brucei rhodesiense; assay: MMV: Inhibition of Trypanosoma brucei rhodesiense (STIB 900) (HAT in vitro).; type: functional, organism-based
Plasmodium falciparum [2] = assay: MMV: Inhibition of Plasmodium falciparum 3D7 at 5uM compound concentration.; type: functional
[3] = system: Trypanosoma brucei brucei; assay: MMV: Inhibition of Trypanosoma brucei brucei (Squib 427) (HAT in vitro).; type: functional, organism-based
Leishmania infantum = assay: MMV: Inhibition of Leishmania infantum (MHOM/MA/BE/67) in vitro.; type: functional, organism-based
Plasmodium falciparum [4] = assay: MMV: Inhibition of Plasmodium falciparum 3D7 (EC50).; type: functional, organism-based
[5] = MMV: Cytotoxicity against human fibroblasts (MRC-5) cells.; conditions: MRC-5 cells (human fibroblasts)
Trypanosoma cruzi = assay: MMV: Inhibition of Trypanosoma cruzi (Tulahuen C4 LacZ) (Chagas in vitro).; type: functional, organism-based

Structure (SMILES)	IC50 [1]	inhibition at 5 µM (Plasmodium falciparum [2])	IC50 [3]	IC50 (Leishmania infantum)	EC50 (Plasmodium falciparum [4])	IC50 [5]	IC50 (Trypanosoma cruzi)
CC1CC(C)CN(C(=O)c2ccc(Cl)cc2Cl)C1 (stereo not given)	> 32 µM	95%	> 32 µM	17.3 µM	756 nM	> 32 µM	24.7 µM
Cc1ccc2cc3c(N)c4c(C)ccc(C)c4nc3nc2c1	1.19 µM	98%	4.09 µM	4.32 µM	1310 nM	11.4 µM	4.56 µM
O=C(Nc1ccc(-c2nc3cc4ccccc4cc3[nH]2)cc1)c1cccc(Br)c1	> 32 µM	93%	> 32 µM	> 32 µM	450 nM	> 32 µM	> 32 µM
COc1ccc(/C=C2/SC(=Nc3ccccc3)NC2=O)cc1	16.3 µM	71%	> 32 µM	> 32 µM	551 nM	11.5 µM	> 32 µM
CCCCCCOC(=O)C1=C(C)NC(=O)NC1c1ccccc1F (stereo not given)	> 32 µM	95%	> 32 µM	18.4 µM	106 nM	> 32 µM	> 32 µM
CC(C)=CCN1CCC(C(=O)Nc2ccc(-c3nc4ccccc4[nH]3)cc2)CC1	2.34 µM	96%	5.04 µM	> 32 µM	1160 nM	> 32 µM	23 µM
C=C(C)CCC(C)N1CCC(N2CCC(C(=O)NCCc3ccccc3)CC2)CC1 (stereo not given)	7.79 µM	96%	17.7 µM	> 32 µM	1750 nM	19 µM	18.2 µM
COc1ccc(C(=O)Nc2nonc2-c2ccc(OC)c(OC)c2)cc1Cl	> 32 µM	92%	> 32 µM	> 32 µM	516 nM	> 32 µM	> 32 µM
Nc1ccc(-c2nc3cc(Oc4ccc(Oc5ccc6[nH]c(-c7ccc(N)cc7)nc6c5)cc4)ccc3[nH]2)cc1	2.74 µM	97%	1.94 µM	4.06 µM	842 nM	8 µM	3.91 µM
O=C(Nc1ccc(N2CCN(Cc3ccccc3)CC2)cc1)c1cccs1	9.69 µM	59%	14.6 µM	> 32 µM	1080 nM	> 32 µM	> 32 µM
O=C(NCc1ccco1)C1CCN(S(=O)(=O)c2ccc(Cl)cc2)CC1	28.9 µM	94%	> 32 µM	> 32 µM	890 nM	> 32 µM	> 32 µM
Cc1nc2ccccc2c(O)c1CC=C(Cl)Cl	> 32 µM	89%	> 32 µM	> 32 µM	836 nM	> 32 µM	1.88 µM
COCCN(C(=O)Cc1cccs1)C(C(=O)NCc1ccc(OC)cc1)c1ccc(C(C)C)cc1 (stereo not given)	16.2 µM	92%	16.2 µM	> 32 µM	1190 nM	27 µM	16.3 µM
CC1=C(CC(=O)c2cccc([N+](=O)[O-])c2)C(=O)c2ccccc2C1=O	16 µM	95%	14.5 µM	> 32 µM	381 nM	> 32 µM	13.4 µM
O=C(Nc1cccc(-c2nc3ccccc3[nH]2)c1)c1cccc(NC(=O)c2ccco2)c1	> 32 µM	95%	> 32 µM	> 32 µM	745 nM	> 32 µM	> 32 µM
Cc1cc(NC(=O)c2ccc(-c3ccccc3)cc2)no1	> 32 µM	95%	> 32 µM	> 32 µM	693 nM	> 32 µM	> 32 µM
CCOc1ccc(CN2CCN(CC(O)COc3ccc(OCC(O)CN4CCN(Cc5ccc(OCC)cc5)CC4)cc3)CC2)cc1 (stereo not given)	0.964 µM	97%	3.52 µM	2.52 µM	1200 nM	10.7 µM	2.54 µM
CCOC(=O)c1cnc2c(C)cc(C)cc2c1Nc1ccc(OC)c(OC)c1	> 32 µM	96%	> 32 µM	> 32 µM	232 nM	> 32 µM	> 32 µM
O=C(NC1CCCCC1)C(c1cccs1)N(CCc1ccccc1)C(=O)c1ccco1 (stereo not given)	19.2 µM	90%	> 32 µM	> 32 µM	1070 nM	> 32 µM	> 32 µM
CCOC(=O)c1cnc2ccc(Cl)cc2c1NCCCN(C)C	4.19 µM	98%	7.4 µM	16.1 µM	1190 nM	> 32 µM	16.2 µM
CCn1c(SCC(=O)Nc2cc(C(F)(F)F)ccc2Cl)nc2ccccc2c1=O	> 32 µM	91%	> 32 µM	> 32 µM	1000 nM	> 32 µM	> 32 µM
COc1cc(C(=O)Nc2ccc(-c3nc4ccccc4[nH]3)cc2)cc(OC)c1OC	2.54 µM	95%	3.37 µM	> 32 µM	1220 nM	> 32 µM	> 32 µM
COc1cc(-c2nc(-c3ccccc3)c(-c3ccccc3)[nH]2)cc(OC)c1O	9.75 µM	97%	11.9 µM	25.4 µM	1180 nM	> 32 µM	28.3 µM
CCOc1ccccc1CNC(=O)C1c2ccccc2C(=O)N(CC(C)C)C1c1cccs1 (stereo not given)	16.1 µM	97%	16.1 µM	> 32 µM	1320 nM	> 32 µM	14.9 µM
COc1nc(Nc2ccc(C(C)C)cc2)nc(OC)n1	10.7 µM	88%	10.9 µM	> 32 µM	1140 nM	> 32 µM	24.5 µM
CCCCc1ccc(NS(=O)(=O)c2cc3c4c(c2)CCN4C(=O)CC3)cc1	16.3 µM	96%	> 32 µM	19 µM	538 nM	5.61 µM	13.6 µM
CCCc1c(C)nc2ccc(Br)cc2c1O	> 32 µM	64%	> 32 µM	> 32 µM	1190 nM	> 32 µM	> 32 µM
O=C(Nc1ccc(CN2CCOCC2)cc1)c1ccc(-c2cc(Cl)ccc2Cl)o1	4.44 µM	97%	14.9 µM	25.4 µM	1940 nM	17.4 µM	12.1 µM
COc1ccc2c(c1OC)C(=O)N1c3ccccc3N=C(c3ccc(C)cc3)CC21 (stereo not given)	3.83 µM	93%	4.28 µM	> 32 µM	1240 nM	> 32 µM	> 32 µM
CN1c2ccccc2N(C)C1c1ccc2c(c1)OCO2	> 32 µM	60%	> 32 µM	> 32 µM	994 nM	> 32 µM	> 32 µM
